One test addresses T1, Adenosine receptor A1 (Homo sapiens, UniProt P30542).
T1 sequence (P30542 whole entry): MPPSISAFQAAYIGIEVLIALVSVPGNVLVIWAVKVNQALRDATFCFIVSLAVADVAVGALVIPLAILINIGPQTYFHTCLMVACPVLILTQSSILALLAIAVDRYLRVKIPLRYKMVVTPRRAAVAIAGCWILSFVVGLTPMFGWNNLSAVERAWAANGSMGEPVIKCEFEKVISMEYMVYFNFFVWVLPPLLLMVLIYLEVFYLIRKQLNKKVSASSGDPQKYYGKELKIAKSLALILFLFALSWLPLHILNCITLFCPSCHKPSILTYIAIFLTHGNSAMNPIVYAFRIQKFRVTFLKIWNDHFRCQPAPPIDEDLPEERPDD

Another test addresses Substance-P receptor (Homo sapiens, UniProt P25103).
A further test has as its target T2, Progesterone receptor (Homo sapiens, UniProt P06401).
T2 sequence (P06401 whole entry): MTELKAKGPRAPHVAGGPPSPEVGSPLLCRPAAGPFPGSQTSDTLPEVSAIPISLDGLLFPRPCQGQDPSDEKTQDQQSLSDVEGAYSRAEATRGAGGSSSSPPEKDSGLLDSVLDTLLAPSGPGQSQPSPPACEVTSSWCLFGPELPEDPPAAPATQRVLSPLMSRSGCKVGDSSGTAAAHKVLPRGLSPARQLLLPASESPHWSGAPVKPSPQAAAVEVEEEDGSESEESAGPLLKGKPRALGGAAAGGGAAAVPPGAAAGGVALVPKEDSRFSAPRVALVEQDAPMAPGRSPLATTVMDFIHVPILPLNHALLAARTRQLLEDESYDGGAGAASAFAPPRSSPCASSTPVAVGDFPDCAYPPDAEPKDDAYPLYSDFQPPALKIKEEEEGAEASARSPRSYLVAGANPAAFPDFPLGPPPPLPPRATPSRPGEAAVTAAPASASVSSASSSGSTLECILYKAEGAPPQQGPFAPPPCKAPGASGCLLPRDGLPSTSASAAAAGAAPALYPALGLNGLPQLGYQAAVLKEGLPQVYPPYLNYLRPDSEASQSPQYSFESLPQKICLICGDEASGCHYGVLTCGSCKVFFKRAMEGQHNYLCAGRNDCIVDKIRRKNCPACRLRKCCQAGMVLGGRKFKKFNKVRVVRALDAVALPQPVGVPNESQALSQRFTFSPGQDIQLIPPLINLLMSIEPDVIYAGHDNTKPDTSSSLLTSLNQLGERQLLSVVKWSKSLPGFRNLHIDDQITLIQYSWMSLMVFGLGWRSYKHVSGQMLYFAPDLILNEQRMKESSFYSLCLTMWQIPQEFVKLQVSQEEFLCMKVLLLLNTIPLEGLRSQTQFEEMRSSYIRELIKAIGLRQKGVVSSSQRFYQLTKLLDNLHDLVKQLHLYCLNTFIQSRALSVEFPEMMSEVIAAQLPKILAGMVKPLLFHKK

Test [1] has as its target Sodium channel protein type 5 subunit alpha (Homo sapiens, UniProt Q14524). It is filed as functional, cell-based.
The next test has as its target T3, Estrogen receptor (Homo sapiens, UniProt P03372).
T3 sequence (P03372 whole entry): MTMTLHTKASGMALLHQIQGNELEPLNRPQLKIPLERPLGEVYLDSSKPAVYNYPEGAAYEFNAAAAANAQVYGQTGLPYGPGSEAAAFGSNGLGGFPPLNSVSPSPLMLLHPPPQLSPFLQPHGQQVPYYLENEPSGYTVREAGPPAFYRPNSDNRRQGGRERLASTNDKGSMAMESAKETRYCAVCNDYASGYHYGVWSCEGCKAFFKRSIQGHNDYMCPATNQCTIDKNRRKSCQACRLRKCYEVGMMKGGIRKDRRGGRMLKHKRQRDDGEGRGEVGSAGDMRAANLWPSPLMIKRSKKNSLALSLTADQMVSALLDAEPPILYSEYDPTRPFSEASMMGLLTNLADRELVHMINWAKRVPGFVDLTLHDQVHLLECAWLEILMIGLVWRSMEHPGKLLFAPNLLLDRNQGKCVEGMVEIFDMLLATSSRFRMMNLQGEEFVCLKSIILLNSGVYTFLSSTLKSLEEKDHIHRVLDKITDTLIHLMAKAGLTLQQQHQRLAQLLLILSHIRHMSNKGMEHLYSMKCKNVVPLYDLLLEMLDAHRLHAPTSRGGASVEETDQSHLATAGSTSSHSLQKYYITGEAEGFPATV

Test [2] deals with T4, Gamma-aminobutyric acid receptor subunit alpha-1/alpha-2/beta-2/gamma-2 (Homo sapiens, UniProt P14867+P18507+P47869+P47870). It counts as functional, cell-based.
The target of test [3] is Vascular endothelial growth factor receptor 2 (Homo sapiens, UniProt P35968). It is filed as functional.
Test [4] deals with T5, Peroxisome proliferator-activated receptor gamma (Homo sapiens, UniProt P37231).
T5 sequence (P37231 whole entry): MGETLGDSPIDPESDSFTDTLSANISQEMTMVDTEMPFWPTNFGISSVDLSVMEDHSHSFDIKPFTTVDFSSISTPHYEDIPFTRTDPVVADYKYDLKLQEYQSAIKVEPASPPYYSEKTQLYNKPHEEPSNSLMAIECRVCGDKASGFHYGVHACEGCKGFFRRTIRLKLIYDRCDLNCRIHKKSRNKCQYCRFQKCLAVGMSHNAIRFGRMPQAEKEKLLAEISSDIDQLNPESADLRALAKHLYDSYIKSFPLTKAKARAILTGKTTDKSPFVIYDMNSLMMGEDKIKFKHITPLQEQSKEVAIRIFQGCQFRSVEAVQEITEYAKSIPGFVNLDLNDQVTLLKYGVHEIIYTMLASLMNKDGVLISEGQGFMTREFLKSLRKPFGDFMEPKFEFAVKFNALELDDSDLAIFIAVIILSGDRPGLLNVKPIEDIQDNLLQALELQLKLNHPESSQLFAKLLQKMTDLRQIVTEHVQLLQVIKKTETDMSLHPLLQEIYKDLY
It counts as functional.

For test [5], the target named is T4, Gamma-aminobutyric acid receptor subunit alpha-1/alpha-2/beta-2/gamma-2. It counts as functional, cell-based. This is another data set of the same source.
Test [6] addresses T5, Peroxisome proliferator-activated receptor gamma. It counts as functional. This is another data set of the same source.
Test [7] deals with Receptor tyrosine-protein kinase erbB-2 (Homo sapiens, UniProt P04626). It is filed as functional.
Receptor tyrosine-protein kinase erbB-2, sequence (P04626 whole entry): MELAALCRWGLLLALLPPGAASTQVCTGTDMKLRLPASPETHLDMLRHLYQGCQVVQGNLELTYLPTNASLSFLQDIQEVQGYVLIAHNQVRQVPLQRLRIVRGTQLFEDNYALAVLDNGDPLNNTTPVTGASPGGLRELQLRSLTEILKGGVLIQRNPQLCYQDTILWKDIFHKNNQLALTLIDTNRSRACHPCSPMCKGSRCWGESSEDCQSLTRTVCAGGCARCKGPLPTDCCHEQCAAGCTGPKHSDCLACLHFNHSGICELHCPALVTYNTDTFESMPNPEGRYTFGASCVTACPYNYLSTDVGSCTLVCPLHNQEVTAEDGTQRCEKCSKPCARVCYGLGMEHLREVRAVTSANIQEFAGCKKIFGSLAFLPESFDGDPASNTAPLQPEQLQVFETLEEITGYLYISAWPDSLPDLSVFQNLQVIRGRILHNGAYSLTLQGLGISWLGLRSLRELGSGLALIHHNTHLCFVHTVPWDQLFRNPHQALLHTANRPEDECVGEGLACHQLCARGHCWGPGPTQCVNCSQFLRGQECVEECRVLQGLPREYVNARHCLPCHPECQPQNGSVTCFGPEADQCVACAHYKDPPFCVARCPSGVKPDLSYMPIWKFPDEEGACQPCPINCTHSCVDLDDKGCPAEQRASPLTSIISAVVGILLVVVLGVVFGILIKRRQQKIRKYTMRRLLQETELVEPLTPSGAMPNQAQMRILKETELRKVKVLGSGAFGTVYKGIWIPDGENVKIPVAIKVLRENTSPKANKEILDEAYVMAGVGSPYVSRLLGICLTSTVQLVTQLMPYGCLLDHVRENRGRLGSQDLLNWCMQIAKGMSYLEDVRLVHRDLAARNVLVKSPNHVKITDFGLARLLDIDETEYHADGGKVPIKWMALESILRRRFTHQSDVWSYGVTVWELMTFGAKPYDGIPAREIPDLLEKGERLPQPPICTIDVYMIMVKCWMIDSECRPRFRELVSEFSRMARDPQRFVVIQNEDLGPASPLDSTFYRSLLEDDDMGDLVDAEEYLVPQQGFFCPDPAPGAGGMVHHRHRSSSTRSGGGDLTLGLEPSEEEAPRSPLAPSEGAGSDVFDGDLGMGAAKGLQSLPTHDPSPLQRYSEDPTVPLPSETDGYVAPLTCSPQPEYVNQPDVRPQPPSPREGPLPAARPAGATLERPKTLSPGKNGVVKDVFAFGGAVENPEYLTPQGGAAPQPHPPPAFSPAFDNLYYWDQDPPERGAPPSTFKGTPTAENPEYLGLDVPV
Another test addresses D(1A) dopamine receptor (Homo sapiens, UniProt P21728). It counts as functional, cell-based.
Note: assay procedure not described here.

Substance-P receptor, sequence (P25103 whole entry): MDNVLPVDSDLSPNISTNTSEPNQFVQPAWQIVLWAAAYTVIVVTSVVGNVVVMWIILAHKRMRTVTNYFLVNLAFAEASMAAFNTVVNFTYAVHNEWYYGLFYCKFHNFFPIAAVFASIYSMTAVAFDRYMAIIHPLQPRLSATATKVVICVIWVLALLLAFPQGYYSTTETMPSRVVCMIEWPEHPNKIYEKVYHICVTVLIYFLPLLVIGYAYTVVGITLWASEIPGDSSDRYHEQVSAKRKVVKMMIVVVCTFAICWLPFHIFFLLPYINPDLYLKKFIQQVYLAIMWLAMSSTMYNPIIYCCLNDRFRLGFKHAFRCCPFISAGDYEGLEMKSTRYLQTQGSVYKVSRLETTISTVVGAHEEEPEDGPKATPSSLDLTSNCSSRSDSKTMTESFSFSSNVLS
Sodium channel protein type 5 subunit alpha, sequence (Q14524 whole entry): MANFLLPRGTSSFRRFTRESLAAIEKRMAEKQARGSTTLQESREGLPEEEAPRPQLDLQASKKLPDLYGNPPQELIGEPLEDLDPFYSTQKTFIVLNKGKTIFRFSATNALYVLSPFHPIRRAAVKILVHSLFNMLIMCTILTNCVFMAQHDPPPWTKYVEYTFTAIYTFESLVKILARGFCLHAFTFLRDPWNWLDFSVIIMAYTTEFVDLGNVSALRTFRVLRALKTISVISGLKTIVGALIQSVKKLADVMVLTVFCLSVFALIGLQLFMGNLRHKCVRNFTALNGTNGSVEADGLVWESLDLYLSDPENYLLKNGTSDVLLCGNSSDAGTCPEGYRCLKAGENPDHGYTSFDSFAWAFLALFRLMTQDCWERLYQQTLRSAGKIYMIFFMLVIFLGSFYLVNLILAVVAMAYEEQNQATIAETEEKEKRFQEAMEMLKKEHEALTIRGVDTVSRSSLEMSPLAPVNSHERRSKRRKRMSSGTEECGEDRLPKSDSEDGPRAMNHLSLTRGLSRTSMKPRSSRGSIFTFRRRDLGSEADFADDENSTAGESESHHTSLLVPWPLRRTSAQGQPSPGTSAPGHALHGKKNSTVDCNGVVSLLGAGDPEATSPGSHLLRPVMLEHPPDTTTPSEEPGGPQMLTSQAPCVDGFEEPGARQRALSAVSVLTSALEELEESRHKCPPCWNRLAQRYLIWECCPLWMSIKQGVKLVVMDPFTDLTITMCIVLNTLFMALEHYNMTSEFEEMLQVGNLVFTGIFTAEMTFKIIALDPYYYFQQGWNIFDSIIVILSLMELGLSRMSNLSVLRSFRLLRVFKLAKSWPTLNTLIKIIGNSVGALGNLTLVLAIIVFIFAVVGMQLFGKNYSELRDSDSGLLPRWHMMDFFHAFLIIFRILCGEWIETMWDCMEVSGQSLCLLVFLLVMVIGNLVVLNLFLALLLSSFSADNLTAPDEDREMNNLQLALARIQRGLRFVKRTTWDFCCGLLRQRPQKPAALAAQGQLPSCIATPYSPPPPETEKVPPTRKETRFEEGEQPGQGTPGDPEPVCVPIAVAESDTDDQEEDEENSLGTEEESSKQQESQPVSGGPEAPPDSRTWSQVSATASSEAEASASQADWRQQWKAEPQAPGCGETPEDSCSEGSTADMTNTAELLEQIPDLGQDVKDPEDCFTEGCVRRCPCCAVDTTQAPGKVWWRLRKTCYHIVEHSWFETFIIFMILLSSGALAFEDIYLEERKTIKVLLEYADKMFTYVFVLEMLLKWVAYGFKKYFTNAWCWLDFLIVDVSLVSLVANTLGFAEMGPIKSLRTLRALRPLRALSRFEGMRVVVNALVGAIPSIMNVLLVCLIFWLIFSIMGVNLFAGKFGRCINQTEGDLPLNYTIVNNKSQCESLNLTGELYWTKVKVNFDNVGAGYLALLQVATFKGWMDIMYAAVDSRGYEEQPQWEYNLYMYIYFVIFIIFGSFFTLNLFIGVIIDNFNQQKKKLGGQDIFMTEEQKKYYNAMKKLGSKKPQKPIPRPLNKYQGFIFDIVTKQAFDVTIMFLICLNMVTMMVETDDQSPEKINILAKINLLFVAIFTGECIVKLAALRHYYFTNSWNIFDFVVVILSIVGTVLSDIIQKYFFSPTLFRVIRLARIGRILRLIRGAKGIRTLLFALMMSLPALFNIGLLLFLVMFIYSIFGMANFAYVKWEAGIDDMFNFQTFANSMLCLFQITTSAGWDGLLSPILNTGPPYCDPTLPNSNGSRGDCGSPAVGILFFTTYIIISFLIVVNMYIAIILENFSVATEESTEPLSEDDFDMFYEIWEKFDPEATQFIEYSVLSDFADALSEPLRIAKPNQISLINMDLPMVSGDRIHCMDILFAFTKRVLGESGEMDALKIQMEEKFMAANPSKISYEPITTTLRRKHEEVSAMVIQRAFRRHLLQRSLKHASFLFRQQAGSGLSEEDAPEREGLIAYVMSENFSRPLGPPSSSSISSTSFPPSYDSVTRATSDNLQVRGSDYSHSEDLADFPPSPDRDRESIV
D(1A) dopamine receptor, sequence (P21728 whole entry): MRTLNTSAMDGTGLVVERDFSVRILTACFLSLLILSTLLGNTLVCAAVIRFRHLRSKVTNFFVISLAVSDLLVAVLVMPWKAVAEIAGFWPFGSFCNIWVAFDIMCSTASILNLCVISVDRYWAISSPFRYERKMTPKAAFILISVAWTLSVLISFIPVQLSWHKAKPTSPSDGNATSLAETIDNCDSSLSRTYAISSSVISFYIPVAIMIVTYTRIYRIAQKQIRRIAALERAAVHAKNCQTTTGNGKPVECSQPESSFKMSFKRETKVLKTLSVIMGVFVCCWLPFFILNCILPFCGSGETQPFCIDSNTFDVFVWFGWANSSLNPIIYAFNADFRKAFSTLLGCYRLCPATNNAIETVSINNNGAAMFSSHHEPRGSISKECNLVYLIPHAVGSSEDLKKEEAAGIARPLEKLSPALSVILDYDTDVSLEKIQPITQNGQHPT

As a reminder, the AC50 is the concentration at which the activity in the assay is half-maximal. Lower therefore signals greater potency. As to `OC[C@H]1NC[C@H](O)[C@@H](O)[C@H]1O`, the half-maximal activity concentration (AC50) at Adenosine receptor A1 is over 30 µM.

`O=C(O)[C@@H](S)[C@@H](S)C(=O)O` showed a concentration at half-maximal activity (AC50) on Adenosine receptor A1 of over 30 µM.

Take `CCOC(=O)[C@H](CCc1ccccc1)N[C@@H](C)C(=O)N1Cc2ccccc2C[C@H]1C(=O)O`: the AC50 at Substance-P receptor was over 10 µM; at Progesterone receptor, over 30 µM; in test [1], over 30 µM; at Estrogen receptor it was over 30 µM.

As to `CCC[C@@]1(CCc2ccccc2)CC(O)=C([C@H](CC)c2cccc(NS(=O)(=O)c3ccc(C(F)(F)F)cn3)c2)C(=O)O1`, the AC50 in [2] was over 30 µM; in [3] it was over 30 µM; in test [4] it was 6.9 µM; in test [1] it was over 50 µM; in test [5], 22 µM; in test [6] it was over 30 µM. For the same molecule, the results for the concentration at half-maximal activity (AC50) (in [7]; at D(1A) dopamine receptor) were over 30 µM and 14 µM, respectively.

On to `CC#CC(=O)N1CCC[C@H]1c1nc(-c2ccc(C(=O)Nc3ccccn3)cc2)c2c(N)nccn12` [ACALABRUTINIB], for which the AC50 on Adenosine receptor A1 was over 30 µM.

Consider `CN(C)CCC=C1c2ccccc2CCc2ccccc21` [AMITRIPTYLINE], for which the AC50 on Substance-P receptor is over 10 µM; in test [3], over 30 µM; on Progesterone receptor, over 30 µM; in [1], 1.81 µM; on Estrogen receptor it was over 30 µM.

For the molecule `CC(=O)Oc1ccccc1C(=O)O` [ASPIRIN], the AC50 at Substance-P receptor is over 10 µM; in test [3], over 30 µM; on Progesterone receptor, over 30 µM; in [1], over 30 µM; on Estrogen receptor, 15.1 µM.

Turning to `O=C(Cc1cccs1)N[C@@H]1C(=O)N2C(C(=O)[O-])=C(C[n+]3ccccc3)CS[C@H]12` [CEPHALORIDINE], the concentration at half-maximal activity (AC50) (in [2]; in test [5]; on Adenosine receptor A1) was over 30 µM throughout.

As for `CN(C)CCCC1(c2ccc(F)cc2)OCc2cc(C#N)ccc21` (stereo unspecified) [CITALOPRAM], the half-maximal activity concentration (AC50) on Substance-P receptor is over 10 µM; on Progesterone receptor, over 30 µM; in test [1] it was over 30 µM; at Adenosine receptor A1 it was over 30 µM; at Estrogen receptor it was over 30 µM.

On Adenosine receptor A1, `CCCCCCCCCCCCCCCC(=O)OC[C@H](COP(=O)([O-])OCC[N+](C)(C)C)OC(=O)CCCCCCCCCCCCCCC` [COLFOSCERIL PALMITATE] showed a concentration at half-maximal activity (AC50) of over 30 µM.

`O=c1[nH]cc(F)c(=O)[nH]1` [FLUOROURACIL] had an AC50 at Adenosine receptor A1 of over 30 µM.

`OCCOCCN1CCN(C(c2ccccc2)c2ccc(Cl)cc2)CC1` (stereo unspecified) [HYDROXYZINE] registered a half-maximal activity concentration (AC50) at Substance-P receptor of over 10 µM.

For the molecule `C[C@@H](O)[C@H]1C(=O)N2C(C(=O)O)=C(SCCN=CN)C[C@H]12` [IMIPENEM ANHYDROUS], the AC50 in test [2] was over 2000 µM; in [3], over 300 µM; in test [4], over 300 µM; in test [5], over 2400 µM; in [6], over 300 µM; in [7], over 300 µM. Besides, the half-maximal activity concentration (AC50) at D(1A) dopamine receptor was over 300 µM.

For `N#Cc1ccnc(N2C(=O)CC[C@H]2C(=O)N(c2cncc(F)c2)[C@H](C(=O)NC2CC(F)(F)C2)c2ccccc2Cl)c1` [IVOSIDENIB], the AC50 in test [1] is over 50 µM.

For the molecule `Nc1nnc(-c2cccc(Cl)c2Cl)c(N)n1` [LAMOTRIGINE], the half-maximal activity concentration (AC50) on Substance-P receptor was over 10 µM; on Progesterone receptor, over 30 µM; in test [1], over 50 µM.

Molecule `CC(=O)NC[C@H]1CN(c2ccc(N3CCOCC3)c(F)c2)C(=O)O1` [LINEZOLID] returned a concentration at half-maximal activity (AC50) in test [1] of over 50 µM.

As to `O=C1[C@@H]2[C@H]3CC[C@H](C3)[C@@H]2C(=O)N1C[C@@H]1CCCC[C@H]1CN1CCN(c2nsc3ccccc23)CC1` [LURASIDONE], the concentration at half-maximal activity (AC50) is over 30 µM in test [2]; over 30 µM in test [3]; over 30 µM in [4]; 41 µM in test [1]; over 30 µM in [5]; over 30 µM in test [6]. The same molecule showed an AC50 in test [7] of over 30 µM.

`CCCCCCO[C@@H](C)c1cccc(-c2csc(NC(=O)c3cc(Cl)c(/C=C(\C)C(=O)O)c(Cl)c3)n2)c1OC` [LUSUTROMBOPAG] displayed an AC50 on Adenosine receptor A1 of over 30 µM.

The molecule `CO[C@@]1(NC(=O)C(C(=O)O)c2ccc(O)cc2)C(=O)N2C(C(=O)O)=C(CSc3nnnn3C)CO[C@@H]21` (stereo partly specified) [MOXALACTAM] showed a concentration at half-maximal activity (AC50) on Adenosine receptor A1 of over 30 µM.

Regarding `C#CCN(C)Cc1ccccc1` [PARGYLINE], the half-maximal activity concentration (AC50) (in test [2]; in [5]; at Adenosine receptor A1) was over 30 µM in each case.

Molecule `COc1cccc2c1C(=O)c1c(O)c3c(c(O)c1C2=O)C[C@@](O)(C(=O)CO)C[C@@H]3O[C@H]1C[C@H](N)[C@H](O[C@@H]2CCCCO2)[C@H](C)O1` [PIRARUBICIN] came in with an AC50 on Adenosine receptor A1 of over 30 µM.

With `COc1cc2c(cc1OC)C1CC(=O)C(CC(C)C)CN1CC2` (stereo unspecified) [TETRABENAZINE], the concentration at half-maximal activity (AC50) in test [2], in test [3], in test [4], in [5], in test [6] and in test [7] was over 30 µM in each case. This molecule also yielded an AC50 at D(1A) dopamine receptor of over 30 µM.

In the case of `CC(C)(CO)c1cc2cc(NC(=O)C3(c4ccc5c(c4)OC(F)(F)O5)CC3)c(F)cc2n1C[C@@H](O)CO` [TEZACAFTOR], the AC50 in [2] was over 30 µM; in [4], over 30 µM; in [1], 42 µM; in test [6] it was over 30 µM.

Consider `c1cnc2cc3c(cc2n1)[C@@H]1CNC[C@H]3C1` [VARENICLINE], for which the half-maximal activity concentration (AC50) in test [2], in test [3], in [4], in test [5], in test [6] and in [7] was over 30 µM each time. Besides, the AC50 on D(1A) dopamine receptor is over 30 µM.

`Nc1c2c(nc3ccccc13)CCCC2O` (stereo unspecified) [VELNACRINE]: the half-maximal activity concentration (AC50) in test [2], in test [3], in test [4], in [5], in [6] and in test [7] was over 30 µM each time. In addition, the concentration at half-maximal activity (AC50) on D(1A) dopamine receptor was over 30 µM.

(Values after ChEMBL document CHEMBL5291721, “A preclinical secondary pharmacology resource illuminates target-adverse drug reaction associations of marketed drugs” (Nat Commun, 2023).)
